Measurements from patent publication US20070110818A1, “Milk fractions and milk preparations for treating and/or preventing cox-2 mediated diseases” (priority 2003, published 2007).

Molecular target: T1, COX-2 (Homo sapiens, UniProt P35354)
T1 construct: treated with 100 nM (nmol/l) phorbol 12-myristate 13-acetate for 6 h at 37° C. to induce COX-2 isoenzyme; endogenous in cells; host or cells: HUV-EC-C (ATCC CRL1730), PMA-induced
T1 sequence (P35354 18-604): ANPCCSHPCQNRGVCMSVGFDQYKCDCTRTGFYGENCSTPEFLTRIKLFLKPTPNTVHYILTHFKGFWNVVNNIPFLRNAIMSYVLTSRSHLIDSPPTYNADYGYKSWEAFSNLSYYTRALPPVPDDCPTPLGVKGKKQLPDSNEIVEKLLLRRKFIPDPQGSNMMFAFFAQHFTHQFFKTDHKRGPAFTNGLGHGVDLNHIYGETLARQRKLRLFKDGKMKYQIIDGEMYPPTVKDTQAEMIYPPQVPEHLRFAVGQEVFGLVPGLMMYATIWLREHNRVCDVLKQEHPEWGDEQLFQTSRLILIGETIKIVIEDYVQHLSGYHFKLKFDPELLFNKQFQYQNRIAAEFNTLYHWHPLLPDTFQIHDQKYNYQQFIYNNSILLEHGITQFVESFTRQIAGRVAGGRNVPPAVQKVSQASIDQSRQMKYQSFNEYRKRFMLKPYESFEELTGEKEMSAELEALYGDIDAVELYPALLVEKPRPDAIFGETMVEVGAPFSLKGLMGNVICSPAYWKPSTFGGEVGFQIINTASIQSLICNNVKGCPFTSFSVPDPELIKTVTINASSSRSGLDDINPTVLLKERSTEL
Experiment: COX-2 screening in PMA-induced HUV-EC-C cells (Prostaglandine-E2 production by RIA)
Type: cell-based
Protocol: HUV-EC-C cells (a permanent endothelial cell line derived from the vein of a normal human umbilical cord; ATCC CRL1730; M. Miralpeix, M. Camacho et al., Brit. J. Pharmacol. 121 (1997), 171-180), were seeded onto 96-well plates (RPMI 1640+10% FCS) and treated with 100 nM (nmol/l) phorbol 12-myristate 13-acetate for 6 h at 37° C. to induce COX-2 isoenzyme. 50 μM (μmol/l) arachidonic acid were then added and the cells were incubated in the presence of test compounds or mixtures for 30 min at 37° C. Prostaglandine-E2 production was measured by radioimmuno assay (RIA) and the radioactivity determined with a scintillation counter (Topcount, Packard) using a liquid scintillation cocktail (Packard).
The results obtained are expressed as a percent of control values and as a percent inhibition of control values obtained in the presence of the test compounds. The control values correspond to the COX-2 activity of HUV-EC-C cells after stimulation with Phorbol Myristate Acetate (PMA) during 6 hours at 37° C. (can be done also with Tumor Necrosis Factor type alpha: TNFα) in absence of test compound.
The concentration causing a half-maximal inhibition of control values (IC50 value) and Hill coefficients (nH) were determined for the reference compounds (cycloheximide) by nonlinear regression analysis of their inhibition curves. These parameters were obtained by Hill equation curve fitting. […]

cyclooxygenase-2 inhibiting activity (in words): no effect
SMILES: N[C@@H](CS)C(=O)O [Cysteine]
